This note sets out measurements from patent publication US8304421B2, “Indole compounds and their use as radiation sensitizing agents and chemotherapeutic agents” (Vanderbilt University, priority 2008, dated 2012).

In this assay the test system is HUVECs. Put plainly: Tubule formation assay on Matrigel. Format: cell-based, Human. As to conditions: 25 μM, 24 hrs, assessed under microscope. How it is done: FIG. 5: HUVECs were plated on Matrigel, then treated wither DMSO or Compound 1 for 24 hrs. Tubule formation was assessed by looking under microscope.
Human umbilical vascular endothelial cells (HUVECs) (50,000 cells/well) were plated on Matrigel. After 30 min, the cells were treated either with DMSO or 25 μM Compound 1. Tubule formation was assessed by observing plates under microscope. FIG. 6 is represents 24 hr time point for DMSO and Compound 1.

As for `N#Cc1ccc(Cn2cc(C=C3C(=O)NC(=O)NC3=O)c3ccccc32)cc1` [Compound 1, 4-((3-((2,4,6-trioxotetrahydropyrimidin-5(6H)-ylidene)methyl)-1H-indol-1-yl)meth-yl)benzonitrile], the “Tubule formation by HUVECs” value is reported as “inhibited the tubule formation”.
